# In PubChem BioAssay AID686920 (Broad Institute, 2013):
# Activity calls are given as the source filed them.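 How the source made its calls: active means fitted curve reaching 35% inhibition at a dose no higher than twice the top valid tested dose; inconclusive means flat fit with 30 to 70% inhibition, or a poor fit; inactive means the rest, including activity in the opposite direction.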
# Assay: NR0B1 reporter signal reduction in A673 cells – cell-based, luciferase luminescence, cherry-pick, EWS/Fli inhibitor project, dose response (AID 686920)
# Conditions: A673 NR0B1-luciferase reporter, viability-normalised luminescence; at 21 µM (top of the series)
row,Structure (SMILES),"activity change, negative = inhibition"
1,COc1cc(C(c2c(C)[nH][nH]c2=O)c2c(C)[nH][nH]c2=O)ccc1OC(C)C,28.1% (inactive)
2,COCc1cc(C)nc2sc(C(=O)NCCO)c(-n3cccc3)c12,112% (inactive)
3,O=C1CCCC2=C1C(c1ccccn1)Nc1ccc(C(=O)c3ccccc3)cc1N2 (configuration not stated),8.98% (inactive)

# Same assay, conditions: A673 NR0B1-luciferase reporter, viability-normalised luminescence; at 68 µM (top of the series)
row,Structure (SMILES),"activity change, negative = inhibition"
1,COC(=O)C[C@@H]1CC[C@@H]2[C@@H](COc3ccc(NC(=O)Cc4cccs4)cc3C(=O)N2C)O1,-27.4% (inactive)
2,CCCc1nc2ccc(NC(=O)c3cccs3)cc2c(=O)n1Cc1ccccc1Cl,5.64% (inactive)
3,CCCCOc1ccc(NC(=O)C(=O)NCCCn2ccnc2)cc1,-0.492% (inactive)
4,Cc1occc1-c1n[nH]c(=S)n1C,10.2% (inactive)
5,C/C=C/c1ccc(C2[C@@H]3CN(C(=O)Cc4ccccc4)C[C@H]2N3)cc1 (some centres not stated),-8.33% (inactive)
6,COC(=O)C[C@@H]1CC[C@@H]2[C@H](COc3ccc(NC(=O)c4cc(F)cc(F)c4)cc3C(=O)N2C)O1,-0.173% (inactive)
7,COc1ccc(NC(=S)N=Nc2c(O)[nH]c3ccccc23)cc1,29.4% (inactive)
8,COC(=O)C[C@@H]1CC[C@@H]2[C@@H](COc3ccc(NC(=O)Nc4cccc(Cl)c4)cc3C(=O)N2C)O1,-7.4% (inactive)
9,COC(=O)C[C@@H]1CC[C@@H]2[C@H](COc3ccc(NC(=O)Nc4cccc(C#N)c4)cc3C(=O)N2C)O1,-24.9% (inactive)
10,O=C(CNC(=O)Cc1ccccc1)N=Nc1c(O)n(Cc2ccc3c(c2)OCO3)c2ccccc12,-28.3% (inactive)
11,CN(C)[C@@H]1CCC[C@@H]1OC(=O)C(c1ccccc1)c1ccccc1,12.1% (inactive)
12,COc1cccc(S(=O)(=O)N(C)C[C@H]2OCc3cnnn3CCCC(=O)N([C@@H](C)CO)C[C@H]2C)c1,-19.9% (inactive)
13,C/C(=N\N(c1ccccc1)c1ccccc1)c1ccco1,-1.23% (inactive)
14,CC(NC(=O)c1ccco1)c1nc(-c2ccc(C(C)(C)C)cc2)no1 (configuration not stated),73.3% (inactive)
15,COC(=O)C[C@@H]1CC[C@@H]2[C@H](COc3ccc(NC(=O)Nc4cccc(Cl)c4)cc3C(=O)N2C)O1,-19.3% (inactive)
16,CC(=O)Nc1ccc(OCC(=O)N(CC(C)C)C2CCS(=O)(=O)C2)cc1 (configuration not stated),6.28% (inactive)
17,COc1ccccc1-c1cn(CC[C@H]2CC[C@@H](NC(=O)C3CCCC3)[C@@H](CO)O2)nn1,-4.29% (inactive)
18,Nc1nc(N)c2c(ccc3nccc32)[nH]1,55.3% (inactive)
19,COC(=O)C[C@@H]1CC[C@@H]2[C@H](COc3ccc(NC(=O)c4ccc(F)cc4)cc3C(=O)N2C)O1,-47% (inactive)
20,CN(C(=O)COC(=O)c1cc(-c2ccccc2Cl)nc2ccccc12)C1CCS(=O)(=O)C1 (configuration not stated),9.88% (inactive)

row,Structure (SMILES),"activity change, negative = inhibition"
1,CN(C)Cc1c(O)ccc2c1O/C(=C\C=C\c1ccccc1)C2=O,5.05% (inactive)
2,N/C(Cc1nc(-c2ccc(F)cc2)cs1)=N\O,42.1% (inactive)
3,COc1ccc(OC)c(-c2cc(C(F)(F)F)c3c(n2)sc2c(O)cc(=O)[nH]c23)c1,5.23% (inactive)
4,S=C(NCCN1CCOCC1)Nc1ccccc1Cl,15.5% (inactive)
5,COc1cc(/C=N\Nc2nc(-c3ccc(C)cc3)c(NC(C)=O)s2)ccc1O,80.8% (inactive)
6,CCn1c(/C=N/NC(=O)c2ccc(OC)cc2)nc2ccccc21,30.3% (inactive)
7,C(=C\c1ccc(C2[C@H]3CNC[C@@H]2N3Cc2ccccn2)cc1)/c1ccccc1 (some centres not stated),32.3% (inactive)
8,COc1ccc(C/C(N)=N/OC(C)=O)cc1OC,13.8% (inactive)
9,CC(Oc1cccc(Cl)c1)C(=O)NCCCCc1ccccc1 (configuration not stated),4.85% (inactive)
10,COc1cc(/C=N/NC(=O)c2csc3c2CCCC3)cc(OC)c1O,16.3% (inactive)
11,CN(C)C(=O)c1ccc(-c2ccccc2[C@@H]2[C@@H](CO)N(C(=O)C3CC3)[C@H]2C#N)cc1,-1.25% (inactive)
12,COC(=O)C[C@H]1CC[C@@H](NC(=O)Nc2ccc(C(F)(F)F)cc2)[C@H](CO)O1,16.7% (inactive)
13,CC(=O)c1ccc(N(C(=O)Cn2nnc3ccccc32)C(C(=O)NCc2ccccc2)c2ccccn2)cc1 (configuration not stated),102% (inactive)
14,CCOc1ccc(NC(=O)C(=O)N/N=C\c2ccc(CNS(=O)(=O)c3ccccc3)o2)cc1,-7.85% (inactive)
15,Cc1noc(C)c1C(=O)Nc1sccc1C(N)=O,20.7% (inactive)
16,CCc1c(C(=O)NN2C(=O)C3CCCCC3C2=O)csc1C (configuration not stated),27.7% (inactive)
17,Cc1ccc(NC(=O)COC(=O)c2ccc3c(c2)OCO3)cc1S(=O)(=O)N1CCCCC1,9.71% (inactive)
18,C=CCOC(=O)c1sc(NC(=O)c2ccc(OC)cc2)nc1C,39% (inactive)
19,COC(=O)C[C@H]1CC[C@@H]2[C@H](COc3ccc(NC(=O)Nc4cccc(Cl)c4)cc3C(=O)N2C)O1,14.5% (inactive)
